Experimental data: patent US7348330B2, “1-azabicyclo [2,2,2] octan-3-one derivatives” (Aprea AB, priority 2000, dated 2008)

Experiments:
[1] = molecular target: T1, endogenous Trp-282 mutant p53 (Homo sapiens, UniProt P04637, R282W); experiment: Band shift assay, BL-60 cell extracts; assay type: biochemical; conditions: cell extracts from Burkitt lymphoma BL-60 cells
T1 construct: endogenous Trp-282 mutant p53 in cell extracts from Burkitt lymphoma BL-60 cells; endogenous in cells; host or cells: Burkitt lymphoma BL-60 cells (cell extract)

[2] = Toxicity assessment in SCID mice; assay type: in vivo
Method: (§1) All animal studies were approved by the local animal ethical committee and animal care was in accordance with institutional guidelines. For toxicity assessment, 12 SCID mice (average weight 25 g) were divided in 4 groups. […] Control animals were injected with PBS. We measured weights of the mice for 1 month after the last injection. […] After 3 days the mice were divided into 4 groups. […] Injections were performed twice daily for 3 days. Tumor volume was measured during 2 months.
(§2) In the untreated control group, the average tumor volume after 59 days was 555.7±284 mm^3 (means±SE, n=3).

[3] = tested on: Saos-2-His-273 cells; experiment: Anti-tumor activity, xenograft in SCID mice; assay type: in vivo; conditions: after 59 days
Method: SCID mice were injected with Saos-2-His-273 cells. […] Tumor volumes were measured once in three days for two months.
as §1, §2

[4] = tested on: A431 cells that carry endogenous His-273 mutant p53; experiment: p53-responsive lacZ reporter; assay type: cell-based; conditions: 50 μM for 20 hours

Compound | restoration of sequence-specific DNA binding [1] | average weight of mice ([2]; 100 mg/kg i.v., after one month of observation, means±SE) | changes in behavior or weight ([2]; intravenous injections, 1, 10 and 100 mg/kg daily for 5 days) | average tumor volume ([3]; 20 mg/kg i.v. twice a day for three days) | average tumor volume ([3]; intratumor 20 mg/kg twice a day for three days) | average tumor volume ([3]; intravenous 100 mg/kg twice a day for three days) | lacZ reporter induction [4]
CCC(=O)OCN1C(=O)C=CC1=O [MIRA-1] | able to restore |  |  |  |  |  | 
O=C1C2CCN(CC2)C1(CO)CO [PRIMA-1, 2,2-bis(hydroxymethyl)-1-azabicyclo[2,2,2]octan-3-one] |  | 20 ± 0.2 g | did not cause any obvious changes in behavior or weight | 53±48.5 mm^3 | 5.3±2.7 mm^3 | 11.7±8 mm^3 | appearance of lacZ-positive cells
